This is an account of results in patent publication US20200085782A1, “COMPOSITIONS AND METHODS OF ENHANCING OR AUGMENTING TYPE I IFN PRODUCTION” (Mavupharma, Inc., priority 2016, published 2020).

For orientation: inhibition means the percentage by which the read-out fell short of the control. A word on the Ki: it is the equilibrium dissociation constant of an inhibitor or competing ligand from its target.

The subject of one assay is THP-1 cells. The experiment in a line: PDE inhibitors library screen on cGAMP activated THP-1 cells, IFNβ ELISA. Format: cell-based, human. The following applies: THP-1 cells activated with 2′,3′-cGAMP; test compound 10 μM; 24 hours; FIG. 3A-3C. The procedure:
THP-1 Cell Activation and Screening of Test Compounds: • (a) THP-1 cells from bulk cultures were counted and suspended in RPMI 1640, 20% FBS, 2.5 mM L-alanyl-L-glutamine at a concentration of 5.5×10^6 cells/mL. The THP-1 cells were subsequently seeded into 96 well round bottom plates—volume of 180 μL/well (1×10^6 cells per well), and the plate was incubated for 1 hour at 37° C., 5% CO2. • (b) Test compounds comprising known phosphodiesterase inhibitors (PDEs), were screened in triplicate (N1, N2, N3) on THP-1 cells. For compound screening, test compounds were assayed at a final concentration of 10 μM. A 200 μM (0.2 mM) working solution of each compound was prepared by diluting 10 mM DMSO stock solutions of each compound in media at a dilution of 50:1 (1640, 20% FBS, 2.5 mM L-alanyl-L-glutamine). […] Cell culture supernatants were then transferred to a clean plate and stored at −80° C. until ready to analyze for IFNβ levels. • (j) IFNβ levels in cell culture supernatants were determined by ELISA according to the manufacturer's instructions (VeriKine Human IFNβ Assay). • (k) The interpolated data was normalized to vehicle control, or unstimulated control, and analyzed.
Background: ELISA stands for enzyme-linked immunosorbent assay.

Assay [1] addresses T1, human recombinant ENPP1 (Homo sapiens, UniProt P22413).
T1 sequence (P22413 1-925): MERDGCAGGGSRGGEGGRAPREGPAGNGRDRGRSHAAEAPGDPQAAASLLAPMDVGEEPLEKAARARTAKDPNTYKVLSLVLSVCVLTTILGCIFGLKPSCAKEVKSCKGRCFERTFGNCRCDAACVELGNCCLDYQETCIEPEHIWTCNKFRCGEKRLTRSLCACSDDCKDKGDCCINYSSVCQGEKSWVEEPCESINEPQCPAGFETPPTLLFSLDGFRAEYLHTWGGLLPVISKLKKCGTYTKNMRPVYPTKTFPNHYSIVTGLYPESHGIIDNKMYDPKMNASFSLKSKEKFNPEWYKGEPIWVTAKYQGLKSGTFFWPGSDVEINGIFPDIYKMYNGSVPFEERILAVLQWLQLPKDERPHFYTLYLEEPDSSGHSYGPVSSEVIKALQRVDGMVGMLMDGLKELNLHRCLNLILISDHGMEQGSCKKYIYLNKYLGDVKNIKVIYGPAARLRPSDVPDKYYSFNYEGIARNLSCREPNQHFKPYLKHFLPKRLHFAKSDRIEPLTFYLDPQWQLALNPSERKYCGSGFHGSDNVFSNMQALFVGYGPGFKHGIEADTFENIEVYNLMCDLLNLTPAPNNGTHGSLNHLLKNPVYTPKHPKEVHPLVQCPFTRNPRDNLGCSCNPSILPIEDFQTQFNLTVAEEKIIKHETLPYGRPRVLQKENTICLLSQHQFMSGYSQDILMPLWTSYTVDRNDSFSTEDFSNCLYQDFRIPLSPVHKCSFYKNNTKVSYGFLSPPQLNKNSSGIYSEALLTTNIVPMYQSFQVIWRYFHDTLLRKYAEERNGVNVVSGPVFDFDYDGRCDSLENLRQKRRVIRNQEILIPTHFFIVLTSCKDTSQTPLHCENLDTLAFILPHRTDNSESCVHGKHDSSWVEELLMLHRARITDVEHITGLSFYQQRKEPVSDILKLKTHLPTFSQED
The experiment in a line: ENPP1 assay with 2′,3′-cGAMP substrate (AMP-Glo). In kind it is biochemical. As for the experimental part: The AMP-Glo™ Assay Kit contains two reagents that are added sequentially. The first converts the 5′-AMP produced in the reaction to 5′ADP. The second converts the 5′-ADP to 5′ATP and reacts the 5′-ATP with the luciferase/luciferin pair to produce the luminescence signal. […] Inhibitors are added at final concentrations ranging between 10 μM and 30 pM depending on the compound. Duplicate wells are run at each inhibitor concentration. The final assay volume is 18 μL and human recombinant ENPP1 is present at 5 ng/well. The assay is initiated by the addition of substrate (20 μM 2′3′cGAMP final concentration), and incubated for 30 minutes at 37° C. To stop the reaction, 12 μl of AMP-Glo reagent I is added and the plate is incubated for 60 minutes at room temperature. 25 μl of AMP-detection reagent is then added and the wells are again incubated for 60 minutes at room temperature. The luminescence signal is then measured using a plate-reading luminometer. Each assay plate also includes wells with no enzyme added (MIN OD) and wells with no inhibitor added (MAX OD). The percent inhibition of ENPP1 for each sample is then calculated as: […]
IC50 values of compounds were calculated by entering the percent inhibition values into a sigmoidal variable slope nonlinear regression model in GraphPad Prism® software. IC50 values were converted to Ki values using the Cheng-Prusoff equation2 where the Km was 15 μM, based on internal determinations.

Assay [2] concerns the target T1, human recombinant ENPP1. The experiment in a line: ENPP1 assay with AMP-pNP substrate (ATP analog), absorbance at 405 nm. In kind it is biochemical. The following applies: read-out: ENPP1 inhibition Ki, AMP-pNP Substrate. The procedure:
ENPP1 is an ectonucleotidase that hydrolyzes both the STING activator 2′,3′-cGAMP and 5′ATP (ATP). In some instances, an inhibitor of ENPP-1 is capable of selectively blocking the hydrolysis of 2′,3′-cGAMP while only minimally inhibiting the hydrolysis of ATP. […] The ENPP1 assay with AMP-pNP substrate is conducted in a buffer containing 50 mM Tris-HCl (pH 8.5)/250 mM NaCl/0.5 mM CaCl2/1 μM ZnCl2/0.1% DMSO. Inhibitors are added at final concentrations ranging between 10 μM and 30 pM depending on the compound. Duplicate wells are run at each inhibitor concentration. The final assay volume is 40 μL and human recombinant ENPP1 is present at 60 ng/well. The assay is initiated by the addition of substrate (300 μM AMP-pNP final concentration), and incubated for 20 minutes at 37° C. The absorbance at 405 nm is then read in a Tecan® plate reader. Each assay plate also includes wells with no enzyme added (MIN OD) and wells with no inhibitor added (MAX OD). The percent inhibition of ENPP1 for each sample is then calculated as: […]
IC50 values of compounds were calculated by entering the percent inhibition values into a sigmoidal variable slope nonlinear regression model in GraphPad Prism® software. IC50 values were converted to Ki values using the Cheng-Prusoff equation, where the Km was 151 μM, based on internal determinations

For the molecule `O=c1cc(-c2ccc(O)c(O)c2)oc2cc(O)cc(O)c12` [Compound 1], in the assay with THP-1 cells, the “cGAMP mediated IFNβ production” value is reported as “augmentation of cGAMP mediated IFNβ production”. On human recombinant ENPP1 [1] (at 1 μM compound, AMP-GLO method, read-out: Inhibition of ENPP1 with cGAMP as the Substrate), the inhibition at 1 µM stood at 76%. In addition, the inhibition at 10 µM at human recombinant ENPP1 [1] (at 10 μM compound, AMP-GLO method, read-out: Inhibition of ENPP1 with cGAMP as the Substrate) was 99%.

As to `COc1cc2ncnc(N3CCC(CCN)CC3)c2cc1OC` [Compound 5], on human recombinant ENPP1 [1] (Ki (AMP-pNP)/Ki (2′3′-cGAMP)), the “Substrate Selectivity Ki Ratio AMP-pNP/2′3′cGAMP” value is on record as >642.

With `COc1cc2ncc(C#N)c(N3CCC(CCNS(C)(=O)=O)CC3)c2cc1OC` [Compound 7], on human recombinant ENPP1 [1] (Ki (AMP-pNP)/Ki (2′3′-cGAMP)), the “Substrate Selectivity Ki Ratio AMP-pNP/2′3′cGAMP” value is 244.

Turning to `CS(=O)(=O)N1CCc2ccc(-c3ncnc4ccccc34)cc2C1` [Compound 8], the “Substrate Selectivity Ki Ratio AMP-pNP/2′3′cGAMP” value on human recombinant ENPP1 [1] (Ki (AMP-pNP)/Ki (2′3′-cGAMP)) is on record as >158.

`CN1CNc2ncnc(N3CCC(CCNS(C)(=O)=O)CC3)c21` [Compound 9]: the “Substrate Selectivity Ki Ratio AMP-pNP/2′3′cGAMP” value at human recombinant ENPP1 [1] (Ki (AMP-pNP)/Ki (2′3′-cGAMP)) is >128.

As for `COc1cc2ccc(=O)n(Cc3ccc(NS(N)(=O)=O)cc3)c2cc1OC` [Compound 10], the Ki on human recombinant ENPP1 [2] was > 30000 nM; on human recombinant ENPP1 [1] (read-out: ENPP1 inhibition Ki, cGAMP Substrate), 234 nM. The “Substrate Selectivity Ki Ratio AMP-pNP/2′3′cGAMP” value at human recombinant ENPP1 [1] (Ki (AMP-pNP)/Ki (2′3′-cGAMP)) is recorded as >127.

Consider `CCN(C)S(=O)(=O)NCCC1CCN(c2ncnc3cc(OC)c(OC)cc23)CC1` [Compound 12], for which the “Substrate Selectivity Ki Ratio AMP-pNP/2′3′cGAMP” value on human recombinant ENPP1 [1] (Ki (AMP-pNP)/Ki (2′3′-cGAMP)) is >89.0.

In the case of `COc1cc2ncnc(N3CCC(CNS(N)(=O)=O)CC3)c2cc1OC` [Compound 13], the “Substrate Selectivity Ki Ratio AMP-pNP/2′3′cGAMP” value on human recombinant ENPP1 [1] (Ki (AMP-pNP)/Ki (2′3′-cGAMP)) was 86.7.

Regarding `COc1cc2ncnc(N3CCN(C(=O)CNS(N)(=O)=O)CC3)c2cc1OC` [Compound 15], the “Substrate Selectivity Ki Ratio AMP-pNP/2′3′cGAMP” value at human recombinant ENPP1 [1] (Ki (AMP-pNP)/Ki (2′3′-cGAMP)) is 57.3.

Regarding `COc1cc2ncnc(-c3ccc(CNS(N)(=O)=O)cc3)c2cc1OC` [Compound 17], the “Substrate Selectivity Ki Ratio AMP-pNP/2′3′cGAMP” value at human recombinant ENPP1 [1] (Ki (AMP-pNP)/Ki (2′3′-cGAMP)) is 48.3.

Regarding `COc1cc2nc(N)nc(N3CCC(CCNS(N)(=O)=O)CC3)c2cc1OC` [Compound 18], on human recombinant ENPP1 [1] (Ki (AMP-pNP)/Ki (2′3′-cGAMP)), the “Substrate Selectivity Ki Ratio AMP-pNP/2′3′cGAMP” value is 47.7.

As for `COc1cc2ncnc(N3CCC4(CC3)CCN(S(C)(=O)=O)C4)c2cc1OC` [Compound 19], on human recombinant ENPP1 [1] (Ki (AMP-pNP)/Ki (2′3′-cGAMP)), the “Substrate Selectivity Ki Ratio AMP-pNP/2′3′cGAMP” value came out at 44.8.

Turning to `CNc1nc(N2CCC(CCNS(N)(=O)=O)CC2)c2cc(OC)c(OC)cc2n1` [Compound 20], the “Substrate Selectivity Ki Ratio AMP-pNP/2′3′cGAMP” value on human recombinant ENPP1 [1] (Ki (AMP-pNP)/Ki (2′3′-cGAMP)) was >38.7.

For `COc1cc2ncnc(-c3ccc4c(c3)CN(S(N)(=O)=O)CC4)c2cc1OC` [Compound 21], the “Substrate Selectivity Ki Ratio AMP-pNP/2′3′cGAMP” value on human recombinant ENPP1 [1] (Ki (AMP-pNP)/Ki (2′3′-cGAMP)) is given as 36.2.

Take `COc1cc2ncnc(NCc3ccc(NS(N)(=O)=O)cc3)c2cc1OC` [Compound 22]: the “Substrate Selectivity Ki Ratio AMP-pNP/2′3′cGAMP” value on human recombinant ENPP1 [1] (Ki (AMP-pNP)/Ki (2′3′-cGAMP)) turned out to be 34.7.

With `COc1cc2nc(-c3ccccc3)nc(N3CCC(CCNS(N)(=O)=O)CC3)c2cc1OC` [Compound 23], the “Substrate Selectivity Ki Ratio AMP-pNP/2′3′cGAMP” value at human recombinant ENPP1 [1] (Ki (AMP-pNP)/Ki (2′3′-cGAMP)) is recorded as >23.9.

In the case of `COc1cc2ncnc(N3CCC4(CC3)CN(S(C)(=O)=O)C4)c2cc1OC` [Compound 24], the “Substrate Selectivity Ki Ratio AMP-pNP/2′3′cGAMP” value on human recombinant ENPP1 [1] (Ki (AMP-pNP)/Ki (2′3′-cGAMP)) amounted to 18.7.

For the molecule `COc1cc2nccc(Oc3ccc(NS(=O)(=O)c4ccccc4)cc3)c2cc1OC` [Compound 25], at human recombinant ENPP1 [1] (Ki (AMP-pNP)/Ki (2′3′-cGAMP)), the “Substrate Selectivity Ki Ratio AMP-pNP/2′3′cGAMP” value is given as >6.80 and the “selectivity for inhibition of cGAMP over AMP-pNP hydrolysis by ENPP1” value was ~6.8 fold.
